Source: patent US9657022B2, “7-OXO-1,6-diazabicyclo[3.2.1]octane derivatives and their use as antibacterial agents” (WOCKHARDT LIMITED, priority 2014, dated 2017)
In brackets after ≈: the same amount, converted by molar mass. Several values for one entry are separate records, joined by “and”; a condition that tells them apart may be missing. Identical values can stand only once.

Experiments:
[1] = target: T1, Class C beta-lactamase P99 (E. cloacae J137) (Enterobacter cloacae, UniProt P05364); assay: Beta-lactamase enzyme inhibition (Nitrocefin, crude enzyme); assay type: biochemical
T1 construct: preincubated mixture of crude enzyme and the compounds; endogenous in cells; host or cells: E. cloacae J137
Method: (§1) Absorbance was measured at 485 nm by UV-spectrophotometer. The IC50 was calculated by plotting absorbance against concentration through Sigmoidal dose response curve using Graph Pad software.

[2] = target: Class D beta-lactamase OXA 26 (A. baumannii NCTC 13303) (Acinetobacter baumannii, UniProt Q9F0V2); assay: as above; assay type: biochemical; conditions: A. baumannii NCTC 13303 (OXA 26), read-out: Beta-lactamase enzyme inhibition IC50
Method: as §1

P. aeruginosa ATCC 27853 = assay: Antibacterial activity (MIC), agar dilution per CLSI; assay type: cell-based; conditions: Pseudomonas aeruginosa, ATCC27853
Method: (§2) The biological activity of representative compounds according to the invention against various bacterial strains was investigated. In a typical study, overnight grown bacterial cultures were diluted appropriately and inoculated on the agar media containing doubling dilutions of the test compounds. Observations for growth or no growth was performed after 16-20 hours of incubation at 35±2° C. in the ambient air. The overall procedure was performed as per Clinical and Laboratory Standards Institute (CLSI) recommendations, (Clinical and Laboratory Standards Institute (CLSI), Performance Standards for Antimicrobial Susceptibility Testing, 20th Informational Supplement, M07-A9, Volume 32, No. 2, 2012). Molten Mueller Hinton Agar (BD, USA) containing serial dilutions of each antibacterial agent were poured on to the plates and allowed to solidify. Appropriate suspensions from the freshly grown cultures were prepared in normal saline so that about 10^4 CFU/spot of the organism was delivered on to the drug containing agar plates using automated multipoint inoculator (Mast, UK). The plates were incubated in Biochemical oxygen demand (BOD) incubator at 37° C. for 18 hours and then examined for growth.
(§3) Table 3 details the antibacterial activity of representative compound of Formula (I), (2S,5R)-sulfuric acid mono-{2-[N′-(2-(S)-pyrrolidin-2-yl-acetyl)-hydrazinocarbonyl]-7-oxo-1,6-diaza-bicyclo[3.2.1]oct-6-yl}ester (Compound of Example 1), against various Multi Drug Resistant (MDR) Gram-negative bacterial strains. The activities are expressed as Minimum Inhibitory Concentrations (MICs) (mcg/ml).

E. cloacae M 20 = assay: as above; assay type: cell-based; conditions: Enterobacter cloacae, M20
Method: as §2, §3

E. coli NCTC 13351 = assay: as above; assay type: cell-based; conditions: Escherichia coli, NCTC13351
Method: as §2, §3

E. coli M 49 = assay: as above; assay type: cell-based; conditions: Escherichia coli, M49
Method: as §2, §3

E. coli 7 MP = assay: as above; assay type: cell-based; conditions: Escherichia coli
Method: as §2, §3

E. coli NCTC 13352 = assay: as above; assay type: cell-based; conditions: Escherichia coli, NCTC13352
Method: as §2, §3

K. pneumoniae S 21 = assay: as above; assay type: cell-based; conditions: Klebsiella pneumoniae, S21
Method: as §2, §3

C. frundaii 58 MP = assay: as above; assay type: cell-based
Method: as §2, §3

P. aeruginosa R 20 = assay: as above; assay type: cell-based; conditions: Pseudomonas aeruginosa, R20
Method: as §2, §3

E. coli M 50 = assay: as above; assay type: cell-based; conditions: Escherichia coli, M50
Method: as §2, §3

P. aeruginosa PAO1 = assay: as above; assay type: cell-based; conditions: Pseudomonas aeruginosa
Method: as §2, §3

P. aeruginosa 2779 = assay: as above; assay type: cell-based; conditions: Pseudomonas aeruginosa
Method: as §2, §3

K. pneumoniae H 525 = assay: as above; assay type: cell-based; conditions: Klebsiella pneumoniae, H525
Method: as §2, §3

[3] = target: T2, Class A beta-lactamase SHV 18 (K. pneumoniae ATCC 700603) (Klebsiella pneumoniae, UniProt P0AD64, E235K/G234A/I4F/R39S); assay: Beta-lactamase enzyme inhibition (Nitrocefin, crude enzyme); assay type: biochemical; conditions: Class A, K. pneumoniae ATCC 700603 (SHV 18); read-out: Beta-lactamase enzyme inhibition IC50
T2 sequence (P0AD64 1-286 I4F/R39S/G234A/E235K): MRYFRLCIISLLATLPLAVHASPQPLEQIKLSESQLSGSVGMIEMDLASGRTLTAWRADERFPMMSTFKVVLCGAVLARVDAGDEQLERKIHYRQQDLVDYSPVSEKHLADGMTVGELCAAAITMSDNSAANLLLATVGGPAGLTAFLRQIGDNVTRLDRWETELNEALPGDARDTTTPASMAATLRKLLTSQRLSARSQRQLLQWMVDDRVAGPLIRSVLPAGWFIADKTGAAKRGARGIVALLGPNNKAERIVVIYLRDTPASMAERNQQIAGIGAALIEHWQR
Method: as §1
The enzyme inhibition was expressed as IC50.

[4] = tested on: E. coli NCTC 13353 (CTX-M15, OXA-1); assay: Antibacterial activity (MIC), agar dilution per CLSI; assay type: cell-based; conditions: Escherichia coli, NCTC13353; E. coli NCTC 13353 (CTX-M15, OXA-1); read-out: MIC
Method: as §2
(§4) The strains selected for study included E. coli NCTC 13353 producing CTX-M15 and OXA-1 beta-lactamase enzymes; K. pneumoniae H521 producing KPC, SHV, TEM beta-lactamase enzymes; and K. pneumoniae S48 producing NDM, SHV, TEM beta-lactamase enzymes. The activities are expressed as Minimum Inhibitory Concentrations (MICs) (mcg/ml).
(§5) The activities are expressed as Minimum Inhibitory Concentrations (MICs) (mcg/ml).

[5] = tested on: K. pneumoniae H521 (KPC, SHV, TEM); assay: as above; assay type: cell-based; conditions: Klebsiella pneumoniae; K. pneumoniae H521 (KPC, SHV, TEM); read-out: MIC
Method: as §2, §4, §5

Chain of Class D beta-lactamase OXA 26 (A. baumannii NCTC 13303) (Q9F0V2 entry or part of it): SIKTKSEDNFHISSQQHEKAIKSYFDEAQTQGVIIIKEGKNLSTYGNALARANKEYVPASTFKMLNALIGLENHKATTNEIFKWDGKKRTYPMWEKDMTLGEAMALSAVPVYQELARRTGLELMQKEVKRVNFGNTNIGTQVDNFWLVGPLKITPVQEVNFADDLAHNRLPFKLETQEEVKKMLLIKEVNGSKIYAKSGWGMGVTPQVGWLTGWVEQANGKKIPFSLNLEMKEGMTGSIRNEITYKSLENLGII
T1 sequence (P05364 21-381): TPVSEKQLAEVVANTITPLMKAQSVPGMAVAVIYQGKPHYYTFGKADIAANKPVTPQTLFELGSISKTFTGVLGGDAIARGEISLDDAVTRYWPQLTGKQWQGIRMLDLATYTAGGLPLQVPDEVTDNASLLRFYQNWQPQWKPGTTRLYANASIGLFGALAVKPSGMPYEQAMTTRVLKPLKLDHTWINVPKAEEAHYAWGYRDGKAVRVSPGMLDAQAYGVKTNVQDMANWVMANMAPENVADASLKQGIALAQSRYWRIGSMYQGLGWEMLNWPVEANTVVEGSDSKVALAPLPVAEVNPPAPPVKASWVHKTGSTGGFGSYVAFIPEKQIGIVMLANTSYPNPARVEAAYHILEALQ

## NC(=O)[C@@H]1CC[C@@H]2CN1C(=O)N2OS(=O)(=O)O [Avibactam, avibactam, reference compound]
[1]
  IC50: 79 nM
[2]
  IC50: 10100 nM
P. aeruginosa ATCC 27853
  MIC: > 64 µg/mL
E. cloacae M 20
  MIC: > 64 µg/mL
E. coli NCTC 13351
  MIC: > 64 µg/mL
E. coli M 49
  MIC: 16 µg/mL (≈ 60.3 µM)
E. coli 7 MP
  MIC: > 64 µg/mL
E. coli NCTC 13352
  MIC: > 64 µg/mL
K. pneumoniae S 21
  MIC: 16 µg/mL (≈ 60.3 µM)
C. frundaii 58 MP
  MIC: > 64 µg/mL
P. aeruginosa R 20
  MIC: > 64 µg/mL
E. coli M 50
  MIC: > 64 µg/mL
P. aeruginosa PAO1
  MIC: > 64 µg/mL
P. aeruginosa 2779
  MIC: > 64 µg/mL
K. pneumoniae H 525
  MIC: 8 µg/mL (≈ 30.2 µM)
[3]
  IC50: 98 nM and 10 nM
[4]
  MIC: 16 µg/mL (≈ 60.3 µM)
[5]
  MIC: 16 µg/mL (≈ 60.3 µM)
